Measured values reported in ChEMBL document CHEMBL1127670, “Comparative molecular field analysis of the antitumor activity of 9H-thioxanthen-9-one derivatives against pancreatic ductal carcinoma 03” (1994).

System: Mus musculus
Assay: Compound was tested for in vivo growth inhibition of pancreatic ductal adenocarcinoma (Panc 03) in mice, expressed as antitumor efficacy; range is 11-25
Format: functional

Structure (SMILES) | T/C [%]
CCN(CC)CCNc1ccc(CO)c2sc3ccccc3c(=O)c12 [HYCANTHONE] | 25
Cc1ccc(NCCN(C)C)c2c(=O)c3ccccc3sc12 | 25
CCN(CC)CCNc1ccc(CNC(=O)c2ccccc2)c2sc3ccccc3c(=O)c12 | 25

System: Mus musculus
Assay: Compound was tested for in vivo growth inhibition of pancreatic ductal adenocarcinoma (Panc 03) in mice, expressed as antitumor efficacy; range is 26-42
Format: functional

Structure (SMILES) | T/C [%]
CCN(CC)CCNc1ccc(COC)c2sc3ccccc3c(=O)c12 | 26
CCN(CC)CCNc1ccc(CN(C)C)c2sc3ccccc3c(=O)c12 | 42
CCN(CC)CCNc1ccc(COC(=O)C(C)(C)C)c2sc3ccccc3c(=O)c12 | 42

System: Mus musculus
Assay: The compound was tested for in vivo growth inhibition of pancreatic ductal adenocarcinoma (Panc 03) in mice.
Format: functional

Structure (SMILES) | T/C [%]
CCN(CC)CCNc1ccc(CNS(=O)(=O)c2ccc(N)cc2)c2sc3ccccc3c(=O)c12 | 3
CCN(CC)CCNc1ccc(/C=N/c2ccccc2)c2sc3ccccc3c(=O)c12 | 2
CCCCCCC(=O)OCc1ccc(NCCN(CC)CC)c2c(=O)c3ccccc3sc12 | 2

System: Mus musculus
Assay: Compound was tested for in vivo growth inhibition of pancreatic ductal adenocarcinoma (Panc 03) in mice, expressed as antitumor efficacy; range is 0-10
Format: functional

Structure (SMILES) | T/C
CCN(CC)CCNc1ccc(CSC)c2sc3ccccc3c(=O)c12 | 10 score (0-10)
CNCc1ccc(NCCN(C)C)c2c(=O)c3ccccc3sc12 | 10 score (0-10)
CCN(CC)CCNc1ccc(CN(C)S(=O)(=O)CC)c2sc3ccccc3c(=O)c12 | 0 score (0-10)
CCN(CC)CCNc1ccc(CNS(=O)(=O)c2ccccc2)c2sc3ccccc3c(=O)c12 | 10 score (0-10)
CNCc1ccc(NCCCN(C)C)c2c(=O)c3ccccc3sc12 | 10 score (0-10)

System: Mus musculus
Assay: Compound was tested for in vivo growth inhibition of pancreatic ductal adenocarcinoma (Panc 03) in mice, expressed as antitumor efficacy
Format: functional

Structure (SMILES) | T/C [%]
CCN(CC)CCNc1ccc(CN(C)S(C)(=O)=O)c2sc3ccccc3c(=O)c12 | 0
CN(C)CCNc1ccc(CNS(C)(=O)=O)c2sc3ccccc3c(=O)c12 | 0
CCNCc1ccc(NCCN(CC)CC)c2c(=O)c3ccccc3sc12 | 0
CCN(CC)CCNc1ccc(CNC(C)=O)c2sc3ccccc3c(=O)c12 | 0
CCN(CC)CCNc1ccc(CN(CC)S(C)(=O)=O)c2sc3ccccc3c(=O)c12 | 0
CCN(C=O)Cc1ccc(NCCN(CC)CC)c2c(=O)c3ccccc3sc12 | 0
CN(C)CCNc1ccc(CN)c2sc3ccccc3c(=O)c12 | 0
CCN(CC)CCNc1ccc(C(N)=O)c2sc3ccccc3c(=O)c12 | 0
